In patent US5252571A, “1,4-benzothiazine-2-acetic acid derivatives” (Sapporo Breweries Limited, priority 1990, dated 1993):
Where two headings read alike, the source gives them in different places.

Assays:
aldose reductase = molecular target: T1, aldose reductase (Sus scrofa, UniProt P80276); test: Aldose reductase inhibitory activity (porcine crystalline lens enzyme); type: biochemical
T1 construct: porcine crystalline lens stored at -80° C. was homogenized in distilled water; from tissue; host or cells: porcine crystalline lens
Experimental: Aldose reductase enzyme standard was prepared from porcine crystalline lens by the method of Hayman et al. (cf., S. Hayman et al., Journal of Biological Chemistry, 240, 877-882, 1965). That is, porcine crystalline lens stored at -80° C. was homogenized in distilled water followed by centrifugation at 10,000 XG for 15 minutes. The supernatant was dissolved to make 40% ammonium sulfate solution. The supernatant centrifuged at 10,000 XG for further 10 minutes was dialyzed to 0.05 M sodium chloride solution overnight. The thus obtained dialysate was used as the enzyme standard.
The activity of aldose reductase was determined by the method of Hayman et al. supra. That is, 25 μl of the enzyme solution described above and […] of a drug solution in 1% DMSO having various concentrations were added to 200 μl of 40 mM phosphate buffer (pH 6.2) prepared to contain […] lithium sulfate and 0.1 MM NADPH (reduced nicotinamide adenine dinucleotide phosphate) in final concentrations and Containing 3 mM d1-glyceraldehyde as substrate, respectively. Thereafter, the mixture was reacted at 25° C. for 2 minutes and change in absorbance at 340 nm was determined using COBAS FARA II (Roche Co.).

[1] = test system: sorbitol in lens withdrawn from rat; test: Activity for preventing accumulation of sorbitol in lens withdrawn from rat; type: cell-based, SD rat; conditions: 50 mM glucose, 10^-6 M test drug, 4 hours, 1% DMSO = 100%, read-out: Sorbitol Content (%)
Experimental: 2) Activity for preventing accumulation of sorbitol in lens withdrawn from rat
The lens withdrawn from SD rats of 7 to 8 weeks age was incubated in 2.0 ml of Kreb's solution (pH 7. 4) containing 50 mM glucose and 10^-6 M test drug for 4 hours. The sorbitol content formed in the tissue was assayed by the enzyme method of Bergmeyer et al. [cf., H. Y. Bergmeyer et al., Methods of Enzymatic Analysis, 3, 1323-1330, 19741 using SDH (Sorbitol dehydrogenase) and AND (β-nicotinamide adenine dinucleotide). The sorbitol content was made 100% when 1% DMSO as a solvent was added in place of the drug and the activity of the drug was determined.

[2] = test system: tissue sorbitol in streptozotocin-induced diabetic rats; test: Inhibitory activity of accumulation of tissue sorbitol in streptozotocin-induced diabetic rats; type: in vivo, Sprague-Dawley rats; conditions: 30 mg/kg oral 4, 8 and 24 hours after streptozotocin, control = 100%, Tukey's test *p < 0.05, **p < 0.01; for Accumulation of Tissue Sorbitol (%), Nerve: sciatic nerve
Experimental: 4) Inhibitory activity of accumulation of tissue sorbitol in streptozatocini-induced diabetic rats.
Sprague-Dawley rats (male,6 weeks of age, one group composed of 5 to 6 rats), fasted overnight, were made diabetic by single intravenous injection of 60 mg/kg body weight of streptozotocin (SIGMA Co. ) , which had been freshly dissolved in normal saline solution.
The compound was orally administered in the form of 0.5% carboxymethylcellulose suspension in a dose of 30 mg/kg 4, 8 and 24 hours after the injection of streptozotocin. During the test, rats were free access to feed and water. Three hours after the final administration, the sorbitol contens in tissues (red blood cell, sciatic nerve, lens) Were determined by the enzyme method of Bergmeyer et al. [cf., H. Y. Bergmeyer et al., Methods of Enzymatic Analysis, 3, 1323-1330, 1974], using SDH (sorbitol dehydrogenase) and AND (β-nicotinamide adenine dinucleotide). The results are shown by percentage (%) when the value obtained with control group administered with 0.5% carboxymethylcellulose solution as a solvent instead of the compound was made 100%.

[3] = molecular target: T2, human placenta aldehyde reductase (Homo sapiens, UniProt P14550); test: Aldehyde reductase of human origin inhibitory activity (specificity); type: biochemical; conditions: 15 mM glucuronate, pH 7.0, read-out: 10 μM inhibition % HPALR
T2 construct: the fraction containing aldehyde reductase activity eluted by salt concentration gradient was dialyzed and used as aldehyde reductase enzyme standard; from tissue; host or cells: human placenta
T2 sequence (P14550 1-325): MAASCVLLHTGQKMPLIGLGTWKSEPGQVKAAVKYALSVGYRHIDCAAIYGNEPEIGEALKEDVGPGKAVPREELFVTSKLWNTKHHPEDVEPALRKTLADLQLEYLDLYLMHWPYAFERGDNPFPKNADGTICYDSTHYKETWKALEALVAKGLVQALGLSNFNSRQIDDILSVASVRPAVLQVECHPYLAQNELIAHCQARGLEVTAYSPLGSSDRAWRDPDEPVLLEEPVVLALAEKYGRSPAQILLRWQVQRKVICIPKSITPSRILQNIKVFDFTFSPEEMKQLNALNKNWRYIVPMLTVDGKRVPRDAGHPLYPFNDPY
Experimental: (§1) That is, human placenta stored at -80° C. was homogenized in distilled water followed by centrifugation at 10,000 XG for 15 minutes. […] The dialysate was applied to DEAE-cellulose column. The fraction containing aldose reductase activity eluted by salt concentration gradient was dialyzed and used as aldose reductase enzyme standard. Furthermore, after fractionation with ammonium sulfate solution, the dialysate was applied to Red Sepharose CL-6B, the fraction containing aldehyde reductase activity eluted by salt concentration gradient was dialyzed and used as aldehyde reductase enzyme standard.
That is, the activity was determined in a manner similar to the case of determining aldose reductase activity, using 200 mM phosphate buffer (pH 7.0) prepared to contain 0.1 mM NADPH in a final concentration and 15 mM glucuronate as substrate.

[4] = molecular target: T3, human placenta aldose reductase (Homo sapiens, UniProt P15121); test: Aldose reductase of human origin inhibitory activity; type: biochemical; conditions: for IC50: d1-glyceraldehyde 3 mM, pH 6.2, 25° C., read-out: IC50 HPAR (human placenta aldose reductase; head prints HPAP); for Ratio HPALR/HPAR: ratio of IC50 aldehyde reductase to aldose reductase, human placenta
T3 construct: The aldose reductase enzyme standard was prepared from human placenta; from tissue; host or cells: human placenta
Experimental: as §1
That is, 25 μl of the enzyme solution described above and 25 μl of a drug solution in 1% DMSO having various concentrations were added to 200 μl of 40 Mm phosphate buffer (pH 6.2) prepared to contain 0.4 M lithium sulfate and 0.1 mM NADPH (reduced nicotinamide adenine dinucleotide phosphate) in final concentrations and containing 3 mM d1-glyceraldehyde as substrate, respectively.

ICR strain mice = test: Safety test, single oral administration in mice with 14 days observation; type: in vivo; conditions: 300 mg/kg oral, male ICR mice
Experimental: Next, safety of the compounds of the present invention was verified by the following test.
After normal ICR strain mice (male, 7 weeks age, 5 mice being into one group) was fasted for 18 hours, each compound (300 mg/kg) of Examples 1311, 132, 134, 156, 173, 179, 183 and 188 was orally administered in the form of 0.5% carboxymethylcellulose suspension. In the control group, 0.5% carboxymethylcellulose solution alone was orally administered. […] During the observation, mice were free access to feed and water.

[5] = d1-glyceraldehyde 3 mM, pH 6.2, 25° C., 2 minutes

CC(C)c1cccc2c1OC(C(C)C)C(=S)N2CC(=O)O (stereo not drawn) [Compound A, 3,4-dihydro-2,8-diisopropyl-3-thioxo-2H-1,4-benzoxazine-4-acetic acid, reference compound]
IC50 (aldose reductase; [5]): 21 nM
activity at 1 µM [1]: 56%
Accumulation of Tissue Sorbitol (%), Lens [2]: 87.3%
Accumulation of Tissue Sorbitol (%), Red Blood Cell [2]: 53.7%
Accumulation of Tissue Sorbitol (%), Nerve [2]: 54.9%

Cc1ccc2c(c1)N(Cc1nc3c(F)c(F)cc(F)c3s1)C(=O)C(CC(=O)O)S2 (stereo not drawn) [Example 165, 2-[4-(4,5,7-Trifluorobenzothiazol-2-yl)methyl-6-methyl-3,4-dihydro-3-oxo-2H-1,4-benzothiazin-2-yl]acetic acid]
inhibition at 10 µM [3]: 32.9%
IC50 [4]: 12 nM
Ratio HPALR/HPAR [4]: > 833

O=C(O)CC1Sc2c(F)cccc2N(Cc2nc3c(Cl)c(Cl)ccc3s2)C1=O (stereo not drawn) [Example 167, 2-[4-(4,5-Dichlorobenzothiazol-2-yl)methyl-8-fluoro-3,4-dihydro-3-oxo-2H-1,4-benzothiazin-2-yl]acetic acid]
inhibition at 10 µM [3]: 28.6%
IC50 [4]: 13 nM
Ratio HPALR/HPAR [4]: > 769

O=C(O)CC1Sc2ccccc2N(Cc2nc3c(F)c(F)cc(F)c3s2)C1=O (stereo not drawn) [Example 183, 2-[4-(4,5,7-Trifluorobenzothiazol-2-yl)methyl-3,4-dihydro-3-oxo-2H-1,4-benzothiazin-2-yl]acetic acid]
inhibition at 10 µM [3]: 19.3%
IC50 (aldose reductase; read-out: IC50 (50% inhibitory concentration, aldose reductase), d1-glyceraldehyde 3 mM, pH 6.2, 25° C., 2 minutes): 9.5 nM
activity at 1 µM [1]: 29%
IC50 [4]: 10 nM
Ratio HPALR/HPAR [4]: > 1000
body weight (ICR strain mice): progressed as in the control group
mice dead (ICR strain mice): none
Accumulation of Tissue Sorbitol (%), Lens [2]: 39.1%
Accumulation of Tissue Sorbitol (%), Red Blood Cell [2]: 25.8%
Accumulation of Tissue Sorbitol (%), Nerve [2]: 3.1%

O=C(O)CC1Sc2cc(F)ccc2N(Cc2nc3c(F)c(F)cc(F)c3s2)C1=O (stereo not drawn) [Example 188, 2-[4-(4,5,7-Trifluorobenzothiazol-2-yl)methyl-7-fluoro-3,4-dihydro-3-oxo-2H-1,4-benzothiazin-2-yl]acetic acid]
inhibition at 10 µM [3]: 19.1%
IC50 (aldose reductase; [5]): 9.7 nM
activity at 1 µM [1]: 38%
IC50 [4]: 14 nM
Ratio HPALR/HPAR [4]: > 714
body weight (ICR strain mice): progressed as in the control group
mice dead (ICR strain mice): none
Accumulation of Tissue Sorbitol (%), Lens [2]: 32.5%
Accumulation of Tissue Sorbitol (%), Red Blood Cell [2]: 15.7%
Accumulation of Tissue Sorbitol (%), Nerve [2]: 0.0%

O=C(O)CC1Sc2ccccc2N(Cc2nc3c(F)c(F)ccc3s2)C1=O (stereo not drawn) [Example 189, 2-[4-(4,5-Difluorobenzothiazol-2-yl)methyl-3,4-dihydro-3-oxo-2H-1,4-benzothiazin-2-yl]acetic acid]
inhibition at 10 µM [3]: 18.5%
IC50 (aldose reductase; [5]): 9.9 nM
activity at 1 µM [1]: 37%
IC50 [4]: 9.3 nM
Ratio HPALR/HPAR [4]: > 1075
Accumulation of Tissue Sorbitol (%), Lens [2]: 30.7%
Accumulation of Tissue Sorbitol (%), Red Blood Cell [2]: 16.6%
Accumulation of Tissue Sorbitol (%), Nerve [2]: 1.1%
